In US9676715B2, “Bis-indolic derivatives, a process for preparing the same and their uses as a drug” (UNIVERSITE JOSEPH FOURIER, priority 2011, dated 2017):
Converted amounts (≈) assume the structure as drawn.

How the values were obtained:
[1] = tested on: S. aureus ATCC 106414 (VISA); test: MIC, microdilution method (9.1); format: cell-based, Staphylococcus aureus; details: Staphylococcus aureus, read after 18 h, read-out: MIC
Method in brief: (§1)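 Antibacterial activity was determined by the microdilution technique recommended in CLSI document M07-A8, at 37° C. in ambient air with Mueller Hinton medium and a final bacterial load of 5×10^5 CFU/ml.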

S. aureus ATCC 25923 = test: MIC, microdilution method (9.1); format: cell-based, Staphylococcus aureus; details: Staphylococcus aureus, ATCC25923, read after 18 h, read-out: MIC
Method in brief: as §1

S. aureus ATCC 29213 = test: MIC, microdilution method (9.1); format: cell-based, Staphylococcus aureus; details: Staphylococcus aureus, ATCC29213, read after 18 h, read-out: MIC
Method in brief: as §1

[2] = tested on: S. aureus ATCC 33592 (MRSA); test: MIC, microdilution method (9.1); format: cell-based, Staphylococcus aureus; details: Staphylococcus aureus, read after 18 h, read-out: MIC
Method in brief: as §1

S. aureus ATCC 6538 = test: MIC, microdilution method (9.1); format: cell-based, Staphylococcus aureus; details: Staphylococcus aureus, ATCC6538, read after 18 h, read-out: MIC
Method in brief: as §1

S. aureus ATCC 9144 = test: MIC, microdilution method (9.1); format: cell-based, Staphylococcus aureus; details: Staphylococcus aureus, ATCC9144, read after 18 h, read-out: MIC
Method in brief: as §1

S. aureus CIP 103428 = test: MIC, microdilution method (9.1); format: cell-based, Staphylococcus aureus; details: Staphylococcus aureus, CIP103428, read after 18 h, read-out: MIC
Method in brief: as §1

[3] = tested on: S. aureus CIP 65.25 (MRSA); test: MIC, microdilution method (9.1); format: cell-based, Staphylococcus aureus; details: Staphylococcus aureus, read after 18 h, read-out: MIC
Method in brief: as §1

S. aureus CIP 65.6 = test: MIC, microdilution method (9.1); format: cell-based, Staphylococcus aureus; details: Staphylococcus aureus, CIP65, read after 18 h, read-out: MIC
Method in brief: as §1

S. aureus SA-1199B = test: MIC, microdilution method (9.1); format: cell-based, Staphylococcus aureus; details: Staphylococcus aureus, SA1199B, 18 h
Method in brief: as §1

[4] = tested on: S. epidermidis ATCC 12228; test: MIC, microdilution method (9.1); format: cell-based, Staphylococcus epidermidis; details: Staphylococcus epidermidis, ATCC12228, read after 18 h, read-out: MIC
Method in brief: as §1

[5] = tested on: S. epidermidis CIP 103627; test: MIC, microdilution method (9.1); format: cell-based, Staphylococcus epidermidis; details: Staphylococcus epidermidis, CIP103627, read after 18 h, read-out: MIC
Method in brief: as §1

S. epidermidis CIP 81.55 = test: MIC, microdilution method (9.1); format: cell-based, Staphylococcus epidermidis; details: Staphylococcus epidermidis, CIP81, read after 18 h, read-out: MIC
Method in brief: as §1

S. pneumoniae ATCC 6303 = test: MIC, microdilution method (9.1); format: cell-based, Streptococcus pneumoniae; details: Streptococcus pneumoniae, ATCC6303, 10% sheep blood, 5% CO2, 18 h, read-out: MIC
Method in brief: (§2)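 CLSI broth microdilution in Mueller Hinton broth, final inoculum 5×10^5 CFU/ml, with two-fold compound dilutions (0.50-128 mg/L final). Incubation at 37° C in ambient air, or 5% CO2 with 10% sheep blood for fastidious species.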

[6] = tested on: S. agalactiae (group B) ATCC 12400; test: MIC, microdilution method (9.1); format: cell-based, Streptococcus agalactiae; details: Streptococcus agalactiae, ATCC12400, 18 h, read-out: MIC
Method in brief: as §1

[7] = tested on: S. pyogenes (group A) CIP 104226; test: MIC, microdilution method (9.1); format: cell-based, Streptococcus pyogenes; details: Streptococcus pyogenes, CIP104226, 18 h, read-out: MIC
Method in brief: as §1

S. mitis CIP 103335 = test: MIC, microdilution method (9.1); format: cell-based, Streptococcus mitis; details: Streptococcus mitis, CIP103335, 18 h, read-out: MIC
Method in brief: as §1

E. faecium CIP 54.32 = test: MIC, microdilution method (9.1); format: cell-based, Enterococcus faecium; details: Enterococcus faecium, CIP54, 18 h, read-out: MIC
Method in brief: as §1

E. faecalis ATCC 29212 = test: MIC, microdilution method (9.1); format: cell-based, Enterococcus faecalis; details: Enterococcus faecalis, ATCC29212, 18 h, read-out: MIC
Method in brief: as §1

[8] = tested on: Acinetobacter baumanii ATCC 19606; test: MIC, microdilution method (9.1); format: cell-based; details: Acinetobacter baumannii, ATCC19606, 18 h, read-out: MIC
Method in brief: as §1

[9] = tested on: Bacillus subtilis CIP 5262; test: MIC, microdilution method (9.1); format: cell-based; details: CIP5262, 18 h, read-out: MIC
Method in brief: as §1

[10] = tested on: Enterobacter cloacae ATCC13047; test: MIC, microdilution method (9.1); format: cell-based; details: 18 h
Method in brief: as §1

[11] = tested on: Escherichia coli ATCC 25922; test: MIC, microdilution method (9.1); format: cell-based; details: ATCC25922, 18 h
Method in brief: as §1

[12] = tested on: Haemophilus influenzae ATCC 49766; test: MIC, microdilution method (9.1); format: cell-based; details: ATCC49766; Haemophilus influenzae ATCC 49766; 10% sheep blood, 5% CO2; 18 h; read-out: MIC
Method in brief: as §2

[13] = tested on: Klebsiella pneumoniae API ATCC 35657; test: MIC, microdilution method (9.1); format: cell-based; details: ATCC35657, 18 h, read-out: MIC
Method in brief: as §1

[14] = tested on: Listeria innocua CIP 80.11; test: MIC, microdilution method (9.1); format: cell-based; details: CIP80, 18 h, read-out: MIC
Method in brief: as §1

[15] = tested on: Pseudomonas aeruginosa CIP 5933; test: MIC, microdilution method (9.1); format: cell-based; details: CIP5933, 18 h, read-out: MIC
Method in brief: as §1

S. pneumoniae ATCC 49619 = test: MIC, microdilution method (9.1); format: cell-based; details: Streptococcus pneumoniae, ATCC49619, 10% sheep blood, 5% CO2, 18 h
Method in brief: as §2

[16] = tested on: Serratia marcescens CIP 103551; test: MIC, microdilution method (9.1); format: cell-based; details: CIP103551, 18 h
Method in brief: as §1

[17] = tested on: HCT116 (human colon tumor); test: In vitro cytotoxicity; format: cell-based; details: read-out: % of cellular growth inhibition; for inhibition at 10 µM: HCT-116, 10^−5 M; for inhibition at 1 µM: HCT-116, 10^−6 M
Protocol: (§3) In vitro cytotoxicity was assayed on three cell lines—KB (human mouth carcinoma), MCR5 (human lung fibroblast) and HCT116 (human colon tumor). Results are presented in table IV as % of cellular growth inhibition in presence of 10^−5 M and 10^−6 M of the tested bis-indolic derivatives.

[18] = tested on: KB (human mouth carcinoma); test: In vitro cytotoxicity; format: cell-based; details: read-out: % of cellular growth inhibition; for inhibition at 10 µM: 10^−5 M; for inhibition at 1 µM: 10^−6 M
Protocol: as §3

[19] = tested on: MRC5 (human lung fibroblast); test: In vitro cytotoxicity; format: cell-based; details: read-out: % of cellular growth inhibition; for inhibition at 10 µM: 10^−5 M; for inhibition at 1 µM: 10^−6 M
Protocol: as §3

[20] = tested on: HCT116 (human colon tumor); test: In vitro cytotoxicity; format: cell-based; details: HCT-116, HCT116, from 100 μM to 0.005 μM in DMSO, duplicate

Structure (SMILES)	MIC [1]	MIC (S. aureus ATCC 25923)	MIC (S. aureus ATCC 29213)	MIC [2]	MIC (S. aureus ATCC 6538)	MIC (S. aureus ATCC 9144)	MIC (S. aureus CIP 103428)	MIC [3]	MIC (S. aureus CIP 65.6)	MIC (S. aureus SA-1199B)	MIC [4]	MIC [5]	MIC (S. epidermidis CIP 81.55)	MIC (S. pneumoniae ATCC 6303)	MIC [6]	MIC [7]	MIC (S. mitis CIP 103335)	MIC (E. faecium CIP 54.32)	MIC (E. faecalis ATCC 29212)	MIC [8]	also measured
CC(C)(C)OC(=O)NCC(NC(=O)c1c[nH]c2ccc(Cl)cc12)c1c[nH]c2ccc(Cl)cc12 (centres unmarked) [Compound 6a, tert-Butyl 2-(5-chloro-1H-indol-3-yl)-2-(5-chloro-1H-indole-3-carboxamido)ethylcarbamate]	4 µg/mL (≈ 8.21 µM)	4 µg/mL (≈ 8.21 µM)	≤ 2 µg/mL	4 µg/mL (≈ 8.21 µM)	4 µg/mL (≈ 8.21 µM)	4 µg/mL (≈ 8.21 µM)	4 µg/mL (≈ 8.21 µM)	4 µg/mL (≈ 8.21 µM)	4 µg/mL (≈ 8.21 µM)	4 µg/mL (≈ 8.21 µM)	4 µg/mL (≈ 8.21 µM)	4 µg/mL (≈ 8.21 µM)	4 µg/mL (≈ 8.21 µM)	32 µg/mL (≈ 65.7 µM)	64 µg/mL (≈ 131 µM)	64 µg/mL (≈ 131 µM)	64 µg/mL (≈ 131 µM)	> 128 µg/mL	> 128 µg/mL	> 128 µg/mL	MIC [9]: 64 µg/mL (≈ 131 µM); MIC [10]: > 128 µg/mL; MIC [11]: > 128 µg/mL; MIC [12]: > 128 µg/mL; MIC [13]: > 128 µg/mL; MIC [14]: > 128 µg/mL; MIC [15]: > 128 µg/mL; MIC (S. pneumoniae ATCC 49619): 64 µg/mL (≈ 131 µM); MIC [16]: > 128 µg/mL; inhibition at 10 µM [17]: 80 ± 9%; inhibition at 1 µM [17]: 0%; inhibition at 10 µM [18]: 87 ± 6%; inhibition at 1 µM [18]: 4%; inhibition at 10 µM [19]: 82 ± 4%; inhibition at 1 µM [19]: 0%; IC50 ([20]; first value): 4.35 µM; IC50 ([20]; second value): 3.79 µM
CC(C)(C)OC(=O)NCC(NC(=O)c1c[nH]c2ccc(Br)cc12)c1c[nH]c2ccccc12 (centres unmarked) [Compound 3c, tert-Butyl [2-(1H-indol-3-yl)-2-(5-bromo-1H-indol-3-yl-carboxamido)ethyl]carbamate]	8 µg/mL (≈ 16.1 µM)	8 µg/mL (≈ 16.1 µM)	8 µg/mL (≈ 16.1 µM)	8 µg/mL (≈ 16.1 µM)	8 µg/mL (≈ 16.1 µM)	8 µg/mL (≈ 16.1 µM)	8 µg/mL (≈ 16.1 µM)	8 µg/mL (≈ 16.1 µM)	8 µg/mL (≈ 16.1 µM)	8 µg/mL (≈ 16.1 µM)	8 µg/mL (≈ 16.1 µM)	8 µg/mL (≈ 16.1 µM)	8 µg/mL (≈ 16.1 µM)	32 µg/mL (≈ 64.3 µM)	64 µg/mL (≈ 129 µM)	64 µg/mL (≈ 129 µM)	64 µg/mL (≈ 129 µM)	> 128 µg/mL	> 128 µg/mL	> 128 µg/mL	MIC [9]: 64 µg/mL (≈ 129 µM); MIC [10]: > 128 µg/mL; MIC [11]: > 128 µg/mL; MIC [12]: > 128 µg/mL; MIC [13]: > 128 µg/mL; MIC [14]: > 128 µg/mL; MIC [15]: > 128 µg/mL; MIC (S. pneumoniae ATCC 49619): 32 µg/mL (≈ 64.3 µM); MIC [16]: > 128 µg/mL; inhibition at 10 µM [17]: 42 ± 3%; inhibition at 1 µM [17]: 11%; inhibition at 10 µM [18]: 46 ± 8%; inhibition at 1 µM [18]: 0%; inhibition at 10 µM [19]: 16 ± 9%; inhibition at 1 µM [19]: 0%; IC50 ([20]; first value): 8.02 µM; IC50 ([20]; second value): 5.43 µM
